From PubChem BioAssay (NCI)
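All cell lines were grown in 96-well plates and treated with compound for 48 hours. Definition used: TGI = concentration required for complete inhibition of growth.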

Legend:
Experiment in all cases: growth of human tumour cells (NCI), 48 h
[1] = tested on: ACHN renal
[2] = tested on: CAKI-1 renal
[3] = tested on: HT29 colon
[4] = tested on: M14 melanoma
[5] = tested on: NCI-H226 lung
[6] = tested on: NCI-H23 lung
[7] = tested on: OVCAR-3 ovarian
[8] = tested on: OVCAR-8 ovarian
[9] = tested on: SK-MEL-28 melanoma
[10] = tested on: SK-MEL-5 melanoma

SMILES	TGI [1] [µM]	TGI [2] [µM]	TGI [3] [µM]	TGI [4] [µM]	TGI [5] [µM]	TGI [6] [µM]	TGI [7] [µM]	TGI [8] [µM]	TGI [9] [µM]	TGI [10] [µM]
CCN(CC)C1Oc2cc3c(cc2C(c2cccc(OC)c2OC)C1C)OCO3 (stereo not given)	29.5	14.2	24.8	46.7	9.24	35.7	9.97	22.6	50.6	21.3
COC(=O)C(Cc1c[nH]c2ccccc12)N=C1Nc2ccncc2S(=O)(=O)N1c1cccc(OC(C)C)c1 (stereo not given)	> 100	> 100	> 100	> 100	> 100	85.8	> 100	> 100	> 100	> 100
CC(C)(C)NC(=O)CCC1C(C(=O)NC(C)(C)C)C2(Cl)C(Cl)=C(Cl)C1(Cl)C2(Cl)Cl (stereo not given)	> 100	–	> 100	> 100	> 100	> 100	> 100	> 100	> 100	> 100
COc1cc(Nc2nc3cc(C(F)(F)F)ccc3n3cccc23)cc(OC)c1OC	> 100	> 100	–	> 100	–	> 100	> 100	> 100	> 100	> 100
CC(=O)O[C@H]1CC[C@@]2(C)C(=CC[C@@H]3[C@@H]2CC[C@]2(C)c4nc(Cl)ccc4C[C@@H]32)C1	> 100	> 100	> 100	> 100	> 100	19.4	69.8	> 100	> 100	96.6
COc1ccc(CNc2cc(=O)n(C)c(=O)[nH]2)cc1	> 100	> 100	> 100	> 100	> 100	> 100	> 100	> 100	> 100	> 100
O=NN(CCF)C(=O)NC1CCSCC1	–	> 100	> 100	–	–	> 100	> 100	> 100	> 100	> 100
CN(C)CCc1c2c(nc3ccccc13)C(=O)c1cccnc1C2=O	1.39	4.62	8.35	0.4	0.473	0.49	1.34	1.66	1.76	0.672
NNc1nnc(-c2nnc(NN)o2)o1	> 10	> 10	> 10	> 10	> 10	> 10	> 10	> 10	> 10	> 10
CNNC(=NS(=O)(=O)c1cc(C#N)c(NNC)cc1S)NNC	> 10	> 10	> 10	> 10	> 10	> 10	> 10	> 10	> 10	> 10
Clc1ccc(C2ON=C(c3ccccc3)N2C23CC4CC(CC(C4)C2)C3)cc1 (stereo not given)	> 10	> 10	> 10	> 10	> 10	> 10	> 10	> 10	> 10	> 10
COc1cccc(C(=O)C#Cc2cnc(OC)nc2OC)c1	3.5	4.39	2.67	6.28	2.75	5.5	3.62	3.88	4.22	3.06
Cc1cnc2c(c1C)C(=O)c1ccccc1C2=O	> 100	> 100	> 100	> 100	> 100	> 100	> 100	> 100	> 100	28.9
O=C(c1ccccc1)c1c(CC(O)c2ccncc2)n(C(=O)c2ccccc2)c2ccccc12 (stereo not given)	67.5	59.7	33.2	30.8	30.8	35	28.9	> 100	32.4	30.1
CN1CCN(c2ccc3c(c2)NCC(=O)N3)CC1	> 100	> 100	> 100	> 100	> 100	> 100	> 100	> 100	> 100	> 100
C=C1CC[C@@H](C)[C@](C)(CCc2ccoc2)C/C=C\C=C/1C(=O)O	> 100	> 100	> 100	> 100	> 100	> 100	42.9	48.8	48.6	> 100
CN(C)CCNC(=O)c1cccc2c(NC(CCC(N)=O)C(=O)O)c3ccccc3nc12 (stereo not given)	18.8	> 100	41.7	27.5	46.6	18.4	> 100	> 100	38.1	31.4
C[N+](C)(C)c1ncnc2c1ncn2C1CCCO1 (stereo not given)	> 100	–	> 100	> 100	> 100	> 100	> 100	> 100	> 100	> 100
COc1ccc2c3c1O[C@H](c1ccc(O)cc1)[C@H]3[N+](C)(C)CC2	> 100	> 100	> 100	> 100	> 100	> 100	> 100	> 100	> 100	> 100
COC(=O)C(=O)Cc1nc2ccccc2o1	> 100	–	> 100	> 100	–	> 100	> 100	–	> 100	–
OC(c1cccnc1Cl)c1nc2ccccc2c2ccnc(Cl)c12 (stereo not given)	> 100	> 100	> 100	> 100	–	> 100	> 100	> 100	> 100	> 100
COc1ccc(NC(=O)C(=O)/C=C(\O)c2ccccc2)cc1	–	> 10	> 10	> 10	–	> 10	–	> 10	> 10	> 10
